Assay results published in article PMC4689406, “(R)-NODAGA-PSMA: A Versatile Precursor for Radiometal Labeling and Nuclear Imaging of PSMA-Positive Tumors” (PLoS ONE, 2015).

Legend:
PSMA on LNCaP cells = biological target: T1, PSMA on LNCaP cells (Homo sapiens, UniProt Q04609); assay: Saturation binding study on intact LNCaP cells; conditions: 120 min at 4°C
T1 construct: host or cells: LNCaP cells
Description: The next day, the medium was removed, the cells washed and incubated for 1 h at 37°C with fresh binding buffer (RPMI Medium 1640-GlutaMAX containing 1% FBS, 100 U/mL penicillin and 100 μg/mL streptomycin, 50 mM Hepes, 50 μg/mL bacitracin, 0.5% BSA). Afterwards, the plates were placed on ice for 30 min followed by incubation with increasing concentrations of either ^68/natGa-CC34, ^64/natCu-CC34, ^111/natIn-CC34 and ^111/[…]-617 (1-100 nM) in phosphate-buffered saline binding buffer pH 7.4. After the addition of the radioligands, the cells were incubated for 120 min at 4°C. […] The cells were washed twice with ice-cold PBS, followed by solubilization with 1 N NaOH and the cell-associated radioactivity was measured using a gamma-counter. Specific binding was plotted against the total molar concentration of the added radiotracer. […] For all the cell studies the values are normalized for 1x10^6 cells per well and all data are from two independent experiments with triplicates in each experiment.

[1] = Lipophilicity (LogD, pH 7.4), shake-flask method; format: physicochemical; conditions: octanol/PBS pH 7.4, shake-flask
Description: The lipophilicity (LogD, pH 7.4) was estimated by the “shake-flask” method (S3 Appendix).
The mixture was vortexed for 1 h to reach the equilibrium and then centrifuged (3000 rpm) for 10 min. From each phase, an aliquot (100 μL) was pipetted out and measured in a γ-counter. Each measurement was repeated five times. Care was taken to avoid cross-contamination between the phases. The partition coefficient was calculated as the average log ratio of the radioactivity in the organic fraction and the PBS fraction.

LNCaP xenografts = assay: Biodistribution in LNCaP xenografts; format: in vivo, Balb/C nude mice; conditions: for Adrenal (biodistribution) / Blood (biodistribution) / Heart (biodistribution) / Intestine (biodistribution) / Kidney (biodistribution) / LNCaP-tumor (tumor uptake, biodistribution) / Lung (biodistribution) / Muscle (biodistribution) / Pancreas (biodistribution) / Spleen (biodistribution) / Stomach (biodistribution) / Bone (biodistribution) / Liver (biodistribution) / Tumor/blood / Tumor/kidney / Tumor/muscle: 10 pmol i.v., LNCaP mice; for Tumor/blood / Tumor/kidney / Tumor/muscle: ratio
Description: Female athymic Balb/C nude mice (age: 4–6 weeks, weight: 17–20 g) were purchased from Janvier, France. […] All animal experiments were conducted in strict accordance with the recommendations in the Guide for the Care and Use of Laboratory Animals of the National Institutes of Health. […]

[2] = 1 h p.i. blocked (co-injected 20 nmol PMPA)

T1 sequence (Q04609 whole entry): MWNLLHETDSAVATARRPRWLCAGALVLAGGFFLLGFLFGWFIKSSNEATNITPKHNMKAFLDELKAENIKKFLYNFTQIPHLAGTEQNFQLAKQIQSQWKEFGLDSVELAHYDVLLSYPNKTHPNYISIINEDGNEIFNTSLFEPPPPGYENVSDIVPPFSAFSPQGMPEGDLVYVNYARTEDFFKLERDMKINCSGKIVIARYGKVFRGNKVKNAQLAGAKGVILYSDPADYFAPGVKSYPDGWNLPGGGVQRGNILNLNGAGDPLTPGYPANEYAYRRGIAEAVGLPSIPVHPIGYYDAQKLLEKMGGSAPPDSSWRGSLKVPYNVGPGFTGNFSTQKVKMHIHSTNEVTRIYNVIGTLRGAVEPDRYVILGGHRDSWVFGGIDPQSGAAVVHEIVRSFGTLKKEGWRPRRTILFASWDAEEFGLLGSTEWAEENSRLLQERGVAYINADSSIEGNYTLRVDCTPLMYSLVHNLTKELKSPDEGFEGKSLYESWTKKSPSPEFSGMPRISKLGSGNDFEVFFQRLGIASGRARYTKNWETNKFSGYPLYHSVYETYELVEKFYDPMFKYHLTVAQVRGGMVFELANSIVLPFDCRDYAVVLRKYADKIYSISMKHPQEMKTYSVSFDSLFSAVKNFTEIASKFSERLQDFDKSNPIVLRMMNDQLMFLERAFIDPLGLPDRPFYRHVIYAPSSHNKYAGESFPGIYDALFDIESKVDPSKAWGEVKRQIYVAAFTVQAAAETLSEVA

O=C([O-])CN(CCN(CC(=O)[O-])Cc1cc(CCC(=O)NCCCCCC(=O)NCCCC[C@H](NC(=O)N[C@@H](CCC(=O)O)C(=O)O)C(=O)O)ccc1[O-])Cc1cc(CCC(=O)O)ccc1[O-].[68Ga+3].[OH3+] [^68Ga-HBED-CC-PSMA, HBED-CC-Ahx-Lys-NH-CO-NH-Glu]
Bmax (maximum number of binding sites) (PSMA on LNCaP cells): 0.41 ± 0.02 nM
Kd (PSMA on LNCaP cells; non-specific binding with 1 μM PMPA, read-out: Kd (dissociation constant)): 2.9 ± 0.6 nM
LogDoctanol/PBS [1]: -4.06 ± 0.10
Adrenal (biodistribution) (LNCaP xenografts; [2]): 1.1±0.5 %IA/g
Blood (biodistribution) (LNCaP xenografts; [2]): 0.4±0.04 %IA/g
Heart (biodistribution) (LNCaP xenografts; [2]): 0.2±0.06 %IA/g
Intestine (biodistribution) (LNCaP xenografts; [2]): 0.3±0.04 %IA/g
Kidney (biodistribution) (LNCaP xenografts; [2]): 11±3 %IA/g
LNCaP-tumor (tumor uptake, biodistribution) (LNCaP xenografts; [2]): 4.1±1.2 %IA/g
Lung (biodistribution) (LNCaP xenografts; [2]): 0.7±0.2 %IA/g
Muscle (biodistribution) (LNCaP xenografts; [2]): 0.2±0.1 %IA/g
Pancreas (biodistribution) (LNCaP xenografts; [2]): 0.3±0.04 %IA/g
Spleen (biodistribution) (LNCaP xenografts; [2]): 2.1±0.06 %IA/g
Stomach (biodistribution) (LNCaP xenografts; [2]): 0.3±0.01 %IA/g
Adrenal (biodistribution) (LNCaP xenografts; 1 h p.i.): 23±4 %IA/g
Blood (biodistribution) (LNCaP xenografts; 1 h p.i.): 0.2±0.04 %IA/g
Bone (biodistribution) (LNCaP xenografts; 1 h p.i.): 0.5±0.05 %IA/g
Heart (biodistribution) (LNCaP xenografts; 1 h p.i.): 0.6±0.06 %IA/g
Intestine (biodistribution) (LNCaP xenografts; 1 h p.i.): 0.5±0.1 %IA/g
Kidney (biodistribution) (LNCaP xenografts; 1 h p.i.): 208±4 %IA/g
LNCaP-tumor (tumor uptake, biodistribution) (LNCaP xenografts; 1 h p.i.): 15.8±1.4 %IA/g
Liver (biodistribution) (LNCaP xenografts; 1 h p.i.): 0.4±0.01 %IA/g
Lung (biodistribution) (LNCaP xenografts; 1 h p.i.): 3.5±0.2 %IA/g
Muscle (biodistribution) (LNCaP xenografts; 1 h p.i.): 0.6±0.06 %IA/g
Pancreas (biodistribution) (LNCaP xenografts; 1 h p.i.): 1.4±0.3 %IA/g
Spleen (biodistribution) (LNCaP xenografts; 1 h p.i.): 31±6 %IA/g
Stomach (biodistribution) (LNCaP xenografts; 1 h p.i.): 0.7±0.1 %IA/g
Adrenal (biodistribution) (LNCaP xenografts; 2 h p.i.): 23±0.8 %IA/g
Bone (biodistribution) (LNCaP xenografts; 2 h p.i.): 0.4±0.2 %IA/g
Heart (biodistribution) (LNCaP xenografts; 2 h p.i.): 0.6±0.02 %IA/g
Intestine (biodistribution) (LNCaP xenografts; 2 h p.i.): 0.5±0.2 %IA/g
Kidney (biodistribution) (LNCaP xenografts; 2 h p.i.): 211±29 %IA/g
LNCaP-tumor (tumor uptake, biodistribution) (LNCaP xenografts; 2 h p.i.): 14.8±2.2 %IA/g
Liver (biodistribution) (LNCaP xenografts; 2 h p.i.): 0.4±0.05 %IA/g
Lung (biodistribution) (LNCaP xenografts; 2 h p.i.): 3.2±0.2 %IA/g
Muscle (biodistribution) (LNCaP xenografts; 2 h p.i.): 0.6±0.2 %IA/g
Pancreas (biodistribution) (LNCaP xenografts; 2 h p.i.): 2±0.5 %IA/g
Spleen (biodistribution) (LNCaP xenografts; 2 h p.i.): 29±2 %IA/g
Stomach (biodistribution) (LNCaP xenografts; 2 h p.i.): 1±0.6 %IA/g
reduction of the tumor uptake (blocking) (LNCaP xenografts; LNCaP tumor, 1 h p.i., co-injection of 20 nmol PMPA): about 75%
Tumor/blood (LNCaP xenografts; 1 h p.i.): 68±4
Tumor/kidney (LNCaP xenografts; 1 h p.i.): 0.08±0.01
Tumor/muscle (LNCaP xenografts; 1 h p.i.): 29±6
Tumor/blood (LNCaP xenografts; 2 h p.i.): 83±15
Tumor/kidney (LNCaP xenografts; 2 h p.i.): 0.07±0.02
Tumor/muscle (LNCaP xenografts; 2 h p.i.): 24±3
